Data taken from patent publication US20100076015A1, “Aminopyridine Derivatives” (VANTIA LIMITED, priority 2008, published 2010).
pIC50: −log10 of the molar value.

Molecular target: T1, Human KLK1 (Homo sapiens, UniProt P06870)
T1 construct: purchased Callbiochem (Calbiochem)
Assay: Determination of the IC50 for KLK1 (fluorogenic substrate H-DVal-Leu-Arg-AFC)
Assay type: biochemical
Settings: 37° C.
In short: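 Test compound at various concentrations was incubated with human KLK1 and the fluorogenic substrate H-DVal-Leu-Arg-AFC at 37° C. Absorbance change at 410 nm gave the initial reaction rate, from which IC50 was obtained.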

T1 sequence (P06870 25-262): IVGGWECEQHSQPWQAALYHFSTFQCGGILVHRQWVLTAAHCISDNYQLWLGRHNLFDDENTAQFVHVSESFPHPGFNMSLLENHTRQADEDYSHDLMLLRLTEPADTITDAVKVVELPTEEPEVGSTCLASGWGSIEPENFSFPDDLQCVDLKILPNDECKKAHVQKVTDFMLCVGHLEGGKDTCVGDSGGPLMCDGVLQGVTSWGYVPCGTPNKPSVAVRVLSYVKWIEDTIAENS

Structure (SMILES)	pIC50
CN[C@@H](C(=O)N[C@@H](Cc1ccc(F)cc1)C(=O)NCc1ccc(N)nc1)C(C)C [Example 89, (R)—N-[(S)-1-[(6-Amino-pyridin-3-ylmethyl)-carbamoyl]-2-(4-fluoro-phenyl)-ethyl]-3-methyl-2-methylamino-butyramide]	7.96
CN1CCC[C@@H]1C(=O)N[C@@H](Cc1ccc(Cl)cc1)C(=O)NCc1ccc(N)nc1 [Example 93, (R)-1-Methyl-pyrrolidine-2-carboxylic acid [(S)-1-[(6-amino-pyridin-3-ylmethyl)-carbamoyl]-2-(4-chloro-phenyl)-ethyl]-amide]	9.07
CN1CCC[C@@H]1C(=O)N[C@@H](Cc1cc(F)c(F)cc1F)C(=O)NCc1ccc(N)nc1 [Example 94, (R)-1-Methyl-pyrrolidine-2-carboxylic acid [(S)-1-[(6-amino-pyridin-3-ylmethyl)-carbamoyl]-2-(2,4,5-trifluoro-phenyl)-ethyl]-amide]	7.90
CN1CCC[C@@H]1C(=O)N[C@@H](Cc1csc2ccccc12)C(=O)NCc1ccc(N)nc1 [Example 95, (R)-1-Methyl-pyrrolidine-2-carboxylic acid {(S)-1-[(6-amino-pyridin-3-ylmethyl)-carbamoyl]-2-benzo[b]thiophen-3-yl-ethyl}-amide]	8.74
CN1CCC[C@@H]1C(=O)N[C@@H](Cc1cc(F)cc(F)c1)C(=O)NCc1ccc(N)nc1 [Example 96, (R)-1-Methyl-pyrrolidine-2-carboxylic acid [(S)-1-[(6-amino-pyridin-3-ylmethyl)-carbamoyl]-2-(3,5-difluoro-phenyl)-ethyl]-amide]	8.26
CN1CCCC1C(=O)NC(Cc1c(F)c(F)c(F)c(F)c1F)C(=O)NCc1ccc(N)nc1 [Example 97, (R)-1-Methyl-pyrrolidine-2-carboxylic acid {(S)-1-[(6-amino-pyridin-3-ylmethyl)-carbamoyl]-2-pentafluorophenyl-ethyl}-amide]	7.34
CN1CCC[C@@H]1C(=O)N[C@@H](Cc1ccc(F)cc1)C(=O)NCc1ccc(N)nc1 [Example 98, (R)-1-Methyl-pyrrolidine-2-carboxylic acid [(S)-1-[(6-amino-pyridin-3-ylmethyl)-carbamoyl]-2-(4-fluoro-phenyl)-ethyl]-amide]	8.89
CN1CCC[C@@H]1C(=O)N[C@@H](Cc1cccc(F)c1)C(=O)NCc1ccc(N)nc1 [Example 99, (R)-1-Methyl-pyrrolidine-2-carboxylic acid [(S)-1-[(6-amino-pyridin-3-ylmethyl)-carbamoyl]-2-(3-fluoro-phenyl)-ethyl]-amide]	7.77
COc1ccc(C[C@H](NC(=O)[C@H]2CCCN2C)C(=O)NCc2ccc(N)nc2)cc1 [Example 100, (R)-1-Methyl-pyrrolidine-2-carboxylic acid [(S)-1-[(6-amino-pyridin-3-ylmethyl)-carbamoyl]-2-(4-methoxy-phenyl)-ethyl]-amide]	7.07
CN1CCC[C@@H]1C(=O)N[C@@H](Cc1ccccc1)C(=O)NCc1ccc(N)nc1 [Example 101, (R)-1-Methyl-pyrrolidine-2-carboxylic acid {(S)-1-[(6-amino-pyridin-3-ylmethyl)-carbamoyl]-2-phenyl-ethyl}-amide]	7.62
CN1CCC[C@@H]1C(=O)N[C@@H](Cc1ccc(C(C)(C)C)cc1)C(=O)NCc1ccc(N)nc1 [Example 102, (R)-1-Methyl-pyrrolidine-2-carboxylic acid [(S)-1-[(6-amino-pyridin-3-ylmethyl)-carbamoyl]-2-(4-tert-butyl-phenyl)-ethyl]-amide]	6.59
CN1CCC[C@@H]1C(=O)N[C@@H](Cc1cccc(Cl)c1)C(=O)NCc1ccc(N)nc1 [Example 103, (R)-1-Methyl-pyrrolidine-2-carboxylic acid [(S)-1-[(6-amino-pyridin-3-ylmethyl)-carbamoyl]-2-(3-chloro-phenyl)-ethyl]-amide]	8.27
Cc1ccccc1C[C@H](NC(=O)[C@H]1CCCN1C)C(=O)NCc1ccc(N)nc1 [Example 104, (R)-1-Methyl-pyrrolidine-2-carboxylic acid {(S)-1-[(6-amino-pyridin-3-ylmethyl)-carbamoyl]-2-o-tolyl-ethyl}-amide]	7.61
Cc1cccc(C[C@H](NC(=O)[C@H]2CCCN2C)C(=O)NCc2ccc(N)nc2)c1 [Example 105, (R)-1-Methyl-pyrrolidine-2-carboxylic acid {(S)-1-[(6-amino-pyridin-3-ylmethyl)-carbamoyl]-2-m-tolyl-ethyl}-amide]	8.42
Cc1ccc(C[C@H](NC(=O)[C@H]2CCCN2C)C(=O)NCc2ccc(N)nc2)cc1 [Example 106, (R)-1-Methyl-pyrrolidine-2-carboxylic acid {(S)-1-[(6-amino-pyridin-3-ylmethyl)-carbamoyl]-2-p-tolyl-ethyl}-amide]	8.41
COc1cccc(C[C@H](NC(=O)[C@H]2CCCN2C)C(=O)NCc2ccc(N)nc2)c1 [Example 107, (R)-1-Methyl-pyrrolidine-2-carboxylic acid [(S)-1-[(6-amino-pyridin-3-ylmethyl)-carbamoyl]-2-(3-methoxy-phenyl)-ethyl]-amide]	7.15

Structure (SMILES)	pIC50
CN1CCC[C@@H]1C(=O)N[C@@H](Cc1ccccc1F)C(=O)NCc1ccc(N)nc1 [Example 108, (R)-1-Methyl-pyrrolidine-2-carboxylic acid [(S)-1-[(6-amino-pyridin-3-ylmethyl)-carbamoyl]-2-(2-fluoro-phenyl)-ethyl]-amide]	7.47
CN1CCC[C@@H]1C(=O)N[C@@H](Cc1ccccc1Cl)C(=O)NCc1ccc(N)nc1 [Example 109, (R)-1-Methyl-pyrrolidine-2-carboxylic acid [(S)-1-[(6-amino-pyridin-3-ylmethyl)-carbamoyl]-2-(2-chloro-phenyl)-ethyl]-amide]	7.66
CN1CCC[C@@H]1C(=O)N[C@@H](Cc1ccc(Cl)cc1Cl)C(=O)NCc1ccc(N)nc1 [Example 110, (R)-1-Methyl-pyrrolidine-2-carboxylic acid [(S)-1-[(6-amino-pyridin-3-ylmethyl)-carbamoyl]-2-(2,4-dichloro-phenyl)-ethyl]-amide]	8.40
CN1CCC[C@@H]1C(=O)N[C@@H](Cc1ccccc1C(F)(F)F)C(=O)NCc1ccc(N)nc1 [Example 111, (R)-1-Methyl-pyrrolidine-2-carboxylic acid [(S)-1-[(6-amino-pyridin-3-ylmethyl)-carbamoyl]-2-(2-trifluoromethyl-phenyl)-ethyl]-amide]	7.82
CN1CCC[C@@H]1C(=O)N[C@@H](Cc1ccncc1)C(=O)NCc1ccc(N)nc1 [Example 112, (R)-1-Methyl-pyrrolidine-2-carboxylic acid {(S)-1-[(6-amino-pyridin-3-ylmethyl)-carbamoyl]-2-pyridin-4-yl-ethyl}-amide]	6.59
CN1CCC[C@@H]1C(=O)N[C@@H](Cc1c[nH]c2ccccc12)C(=O)NCc1ccc(N)nc1 [Example 113, (R)-1-Methyl-pyrrolidine-2-carboxylic acid [(S)-1-[(6-amino-pyridin-3-ylmethyl)-carbamoyl]-2-(1H-indol-3-yl)-ethyl]-amide]	7.84
CN1CCC[C@@H]1C(=O)N[C@@H](Cc1ccc2ccccc2n1)C(=O)NCc1ccc(N)nc1 [Example 114, (R)-1-Methyl-pyrrolidine-2-carboxylic acid {(S)-1-[(6-amino-pyridin-3-ylmethyl)-carbamoyl]-2-quinolin-2-yl-ethyl}-amide]	7.55
CN1CCC[C@@H]1C(=O)N[C@@H](CC1CCCCC1)C(=O)NCc1ccc(N)nc1 [Example 115, (R)-1-Methyl-pyrrolidine-2-carboxylic acid {(S)-1-[(6-amino-pyridin-3-ylmethyl)-carbamoyl]-2-cyclohexyl-ethyl}-amide]	7.71
CN1CCC[C@H]1C(=O)N[C@@H](Cc1ccc(F)c(F)c1)C(=O)NCc1ccc(N)nc1 [Example 116, (S)-1-Methyl-pyrrolidine-2-carboxylic acid [(S)-1-[(6-amino-pyridin-3-ylmethyl)-carbamoyl]-2-(3,4-difluoro-phenyl)-ethyl]-amide]	7.79
CC(C)N1CCC[C@@H]1C(=O)N[C@@H](Cc1ccc(Cl)c(Cl)c1)C(=O)NCc1ccc(N)nc1 [Example 117, (R)-1-Isopropyl-pyrrolidine-2-carboxylic acid [(S)-1-[(6-amino-pyridin-3-ylmethyl)-carbamoyl]-2-(3,4-dichloro-phenyl)-ethyl]-amide]	9.35
CC(C)N1CCC[C@@H]1C(=O)N[C@@H](Cc1cccc2ccccc12)C(=O)NCc1ccc(N)nc1 [Example 118, (R)-1-Isopropyl-pyrrolidine-2-carboxylic acid {(S)-1-[(6-amino-pyridin-3-ylmethyl)-carbamoyl]-2-naphthalen-1-yl-ethyl}-amide]	8.68
CC(C)N1CCC[C@@H]1C(=O)N[C@@H](Cc1ccc(F)cc1)C(=O)NCc1ccc(N)nc1 [Example 119, (R)-1-Isopropyl-pyrrolidine-2-carboxylic acid [(S)-1-[(6-amino-pyridin-3-ylmethyl)-carbamoyl]-2-(4-fluoro-phenyl)-ethyl]-amide]	8.74
CC(C)N1CCC[C@@H]1C(=O)N[C@@H](Cc1cccc(Cl)c1)C(=O)NCc1ccc(N)nc1 [Example 120, (R)-1-Isopropyl-pyrrolidine-2-carboxylic acid [(S)-1-[(6-amino-pyridin-3-ylmethyl)-carbamoyl]-2-(3-chloro-phenyl)-ethyl]-amide]	8.80
Cc1ccccc1C[C@H](NC(=O)[C@H]1CCCN1C(C)C)C(=O)NCc1ccc(N)nc1 [Example 121, (R)-1-Isopropyl-pyrrolidine-2-carboxylic acid {(S)-1-[(6-amino-pyridin-3-ylmethyl)-carbamoyl]-2-o-tolyl-ethyl}-amide]	7.96
Cc1cccc(C[C@H](NC(=O)[C@H]2CCCN2C(C)C)C(=O)NCc2ccc(N)nc2)c1 [Example 122, (R)-1-Isopropyl-pyrrolidine-2-carboxylic acid {(S)-1-[(6-amino-pyridin-3-ylmethyl)-carbamoyl]-2-m-tolyl-ethyl}-amide]	8.74
